{"source": "patent US9339549B2", "about": "“Cationic graft-copolymer for drug delivery system” (priority 2013, dated 2016)", "key": {"[1]": {"system": "NIH/3T3 cells (mouse embryonic fibroblast cell line)", "experiment": "MTT test using NIH/3T3 cells", "format": "cell-based", "conditions": "incubation 50 hours at 37° C.", "description": "Following procedure by MTT assay of DESCRIPTION OF EMBODIMENTS (4), after incubation of NIH/3T3 cells (mouse embryonic fibroblast cell line) for 50 hours at 37° C., cell viability was examined.\nThis test is a quantitative colorimetric method to determine cell proliferation. It utilizes the yellow tetrazolium salt [3-(4,5-Dimethylthiazol-2-yl)-2,5-diphenyltetrazolium-bromide] which is metabolized by mitochondrial succinic dehydrogenase activity of proliferating cells to yield a purple formazan reaction product.\nThe formazan is then solubilized by isopropyl alcohol, and the concentration determined by optical density at 570 nm and cell survival was calculated using the following formula: Cell survival (%)=((As−Ab)/(Ac−Ab))×100\nWhere, As=absorbance of the sample, Ac=absorbance of the control well […] and Ab=absorbance of the blank well.\n1. Plate cells into 96-well tissue culture plates. Cells should be seeded at densities of 10,000 cells per well since they will reach optimal population densities within 24 to 48 hours.\n2. Carry out the experiment by adding DDMC/PTX or PTX into appropriate well. The final volume of tissue culture medium in each well is 0.1 mL, and the medium may contain up to 10% Fetal Bovine Serum.\n3. Use one vial of MTT solution for each 96-well plate assay.\n4. Add 10 μL MTT solution to each well. […]\n7. Read absorbance at 570 nm cell survival (%)=((As−Ab)/(Ac−Ab))×100"}, "B16F10 melanoma cells": {"system": "B16F10 melanoma cells", "experiment": "Anti-tumor effects and survival in B16F10 tumor-bearing C57BL/6 mice", "format": "in vivo, mouse", "description": "In vivo analysis for melanoma cells is investigated by C57BL/6 female mouse. Anti-tumor effects and survival rates were investigated in tumor-bearing mice.\nTo evaluate the anti-tumor effects of DMMC/PTX complex, tumor-bearing mice were prepared by inoculating B16F10 melanoma cells S.C onto the back of C57BL/6 female mouse (2.0×10^6 cells/mouse). At average 1885 mm^3 of tumor volume, 12 days after inoculation, paclitaxel (PTX), DMMC/PTX4 (particle size 50 nm), DMMC/PTX5 (particle size 290 nm), and […] were administrated by I.P. injection three times (at a dose of 10 mg PXL/kg, on days 12, 14, and 16). Tumor size was measured with a digital vernier caliper and the volume was calculated using the relation V (mm^3)=(a×b^2)/2 where a is the longer, and b is the shorter diameter. The survival periods also monitored at 2 day intervals.\nThe tumor growth inhibitory activities were evaluated using B16F10 in xeno-graft tumor-bearing C57BL/6 mice. The tumors rapidly grew in size when the mice were treated with saline and PTX. […] The mean tumor volumes increase rate in the PTX, […], DDMC/PTX4 and DDMC/PTX5 groups were 1.85, 1.84, 1.39 and 1.53, respectively."}, "[2]": {"conditions": "I.P. three times, 10 mg PXL/kg on days 12, 14, 16, B16F10 tumor-bearing C57BL/6 mice"}}}
{"molecule": "CC(=O)O[C@H]1C(=O)[C@@]2(C)[C@H]([C@H](OC(=O)c3ccccc3)[C@]3(O)C[C@H](OC(=O)[C@H](O)[C@@H](NC(=O)c4ccccc4)c4ccccc4)C(C)=C1C3(C)C)[C@]1(OC(C)=O)CO[C@@H]1C[C@@H]2O", "note": "[control 2, paclitaxel]", "values": [{"measurement": "IC50 (μg/ml), MTT", "setting": "[1]", "value": 4.5, "unit": "µg/mL"}]}
{"molecule": "CC(=O)O[C@H]1C(=O)[C@@]2(C)[C@H]([C@H](OC(=O)c3ccccc3)[C@]3(O)C[C@H](OC(=O)[C@H](O)[C@@H](NC(=O)c4ccccc4)c4ccccc4)C(C)=C1C3(C)C)[C@]1(OC(C)=O)CO[C@@H]1C[C@@H]2O", "note": "[control 1, paclitaxel]", "values": [{"measurement": "IC50", "setting": "[1]; Mus musculus, NIH3T3, 50 h, read-out: IC50 (μg/ml), MTT", "value": 3, "unit": "µg/mL"}]}
{"molecule": "paclitaxel [PTX]", "values": [{"measurement": "mean tumor volumes increase rate", "setting": "B16F10 melanoma cells; [2]", "value": 1.85}, {"measurement": "median survival time (50%, MST)", "setting": "B16F10 melanoma cells; [2]", "value": 176, "unit": "h"}, {"measurement": "T/C of median survival time", "setting": "B16F10 melanoma cells; relative to serine (saline) group = 1.0", "value": 1.46}]}
